According to ChEMBL document CHEMBL1201862, “PubChem BioAssay data set” (2004):
Active and inactive are the calls of the source.

What was measured:
[1] = molecular target: Lysine-specific demethylase 4A (Homo sapiens, UniProt O75164); assay: JMJD2A histone demethylase inhibitors, dose response, selectivity assay for GASC-1 inhibitor project, biochemical, DELFIA europium, cherry-picked samples (AID 488840)
[2] = molecular target: Lysine-specific demethylase 4C (Homo sapiens, UniProt Q9H3R0); assay: GASC-1 (JMJD2C) histone demethylase inhibitors, dose response, biochemical, DELFIA europium, cherry-picked samples (AID 488835); type: functional
[3] = molecular target: T1, Sentrin-specific protease 8 (Homo sapiens, UniProt Q96LD8); type: functional
T1 sequence (Q96LD8 whole entry): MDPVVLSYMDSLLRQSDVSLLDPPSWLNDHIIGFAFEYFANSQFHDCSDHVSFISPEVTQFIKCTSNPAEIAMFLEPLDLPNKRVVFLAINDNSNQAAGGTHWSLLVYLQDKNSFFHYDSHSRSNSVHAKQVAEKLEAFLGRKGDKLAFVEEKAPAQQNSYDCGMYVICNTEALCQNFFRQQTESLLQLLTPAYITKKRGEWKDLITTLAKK

[4] = molecular target: T1, Sentrin-specific protease 8; type: functional; remark: listed apart in the source
[5] = NIH-3T3 fibroblast cytotoxicity, dose response, cytotoxicity control, cell-based, fluorescence, Alamar Blue, secondary assay (AID 2327); type: functional;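 note: NIH-3T3 mouse fibroblasts cultured with fluconazole at 8 µg/mL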
[6] = insulin promoter down-regulators in MIN6 cells, imaging, high-content screening, mouse beta cells (AID 1628); type: functional
[7] = cytotoxicity in MIN6 insulinoma cells, dose response, cytotoxicity control, cell-based, mouse insulinoma (AID 2122); type: functional;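 note: confirmatory high-throughput counterscreen run to flag cytotoxic compounds; mouse MIN-6 beta cells carrying an insulin promoter eGFP reporter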
[8] = C. albicans growth with fluconazole, confirmation, fluorescence, retest (AID 2467); type: functional, cell-based
[9] = molecular target: T2, Serine/threonine-protein phosphatase (Candida dubliniensis (strain CD36 / CBS 7987 / NCPF 3949 / NRRLY-17841) (Yeast), UniProt B9W6M3); assay: calcineurin pathway inhibitors in yeast reporter, dose response, S. cerevisiae, CDRE-lacZ, luminescence, secondary (AID 2388); type: functional, cell-based;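 note: yeast reporter cells carrying a calcineurin-responsive lacZ construct stimulated with calcium chloride; luminescent beta-galactosidase reporter signal in whole cells rather than isolated phosphatase activity; potency for inhibition where a drop in reporter signal means calcineurin blockade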
T2 sequence (B9W6M3 whole entry): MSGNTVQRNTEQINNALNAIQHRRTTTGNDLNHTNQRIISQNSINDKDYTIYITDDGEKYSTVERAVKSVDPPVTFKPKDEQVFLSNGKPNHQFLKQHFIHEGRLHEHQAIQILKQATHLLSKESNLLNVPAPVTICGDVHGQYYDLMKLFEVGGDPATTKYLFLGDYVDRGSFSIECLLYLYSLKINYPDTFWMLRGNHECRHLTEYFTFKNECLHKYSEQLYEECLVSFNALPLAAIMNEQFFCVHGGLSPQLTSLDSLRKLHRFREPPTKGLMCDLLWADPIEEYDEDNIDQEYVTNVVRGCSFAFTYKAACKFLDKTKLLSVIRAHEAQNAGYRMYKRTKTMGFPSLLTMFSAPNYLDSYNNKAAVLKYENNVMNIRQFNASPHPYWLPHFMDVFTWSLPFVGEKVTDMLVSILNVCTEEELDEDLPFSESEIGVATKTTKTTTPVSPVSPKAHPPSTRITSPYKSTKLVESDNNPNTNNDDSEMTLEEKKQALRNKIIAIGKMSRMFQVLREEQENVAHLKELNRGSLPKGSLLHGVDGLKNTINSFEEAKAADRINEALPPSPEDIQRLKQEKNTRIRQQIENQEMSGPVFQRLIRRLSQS

INS1 = assay: beta cell apoptosis inhibitors, cytokine rescue, dose response, luminescence, retest (AID 449756); type: functional, cell-based; conditions: Rattus norvegicus;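 note: cell death triggered by IL-1 beta plus TNF-alpha plus IFN-gamma mixture; protective hits raise ATP signal compared with cytokine alone wells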
[10] = molecular target: ATP-dependent molecular chaperone HSP82 (Candida albicans (strain WO-1) (Yeast), UniProt C4YTQ8); assay: loss of DOC-induced GRE-beta-galactosidase reporter signal, dose response, Hsp90 inhibitor project, S. cerevisiae, luminescence (AID 2400); type: functional, cell-based;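 note: beta-galactosidase luminescence from glucocorticoid response element reporter as proxy for Hsp90 function; inhibitor potency where signal loss means Hsp90 inhibition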
[11] = molecular target: Intestinal-type alkaline phosphatase (Mus musculus, UniProt P24822); assay: PubChem AID 488874; type: functional
[12] = molecular target: T3, Intestinal-type alkaline phosphatase (Homo sapiens, UniProt P09923); assay: human intestinal alkaline phosphatase activators, dose response, biochemical, luminescence, uHTS hits (AID 463120); type: functional
[13] = molecular target: T3, Intestinal-type alkaline phosphatase; assay: human IAP activators, dose response, biochemical, luminescent, uHTS hits, set 2 (AID 488817); type: functional;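 note: potency of activators that raise enzyme activity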
[14] = molecular target: T4, Alkaline phosphatase, tissue-nonspecific isozyme (Homo sapiens, UniProt P05186); assay: TNAP enzyme activators, dose response, selectivity assay for human IAP activator project, biochemical, TNAP isozyme, human IAP uHTS hits (AID 488886); type: functional;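 note: potency of compounds raising TNAP activity as a selectivity check on IAP activators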
T4 sequence (P05186 whole entry): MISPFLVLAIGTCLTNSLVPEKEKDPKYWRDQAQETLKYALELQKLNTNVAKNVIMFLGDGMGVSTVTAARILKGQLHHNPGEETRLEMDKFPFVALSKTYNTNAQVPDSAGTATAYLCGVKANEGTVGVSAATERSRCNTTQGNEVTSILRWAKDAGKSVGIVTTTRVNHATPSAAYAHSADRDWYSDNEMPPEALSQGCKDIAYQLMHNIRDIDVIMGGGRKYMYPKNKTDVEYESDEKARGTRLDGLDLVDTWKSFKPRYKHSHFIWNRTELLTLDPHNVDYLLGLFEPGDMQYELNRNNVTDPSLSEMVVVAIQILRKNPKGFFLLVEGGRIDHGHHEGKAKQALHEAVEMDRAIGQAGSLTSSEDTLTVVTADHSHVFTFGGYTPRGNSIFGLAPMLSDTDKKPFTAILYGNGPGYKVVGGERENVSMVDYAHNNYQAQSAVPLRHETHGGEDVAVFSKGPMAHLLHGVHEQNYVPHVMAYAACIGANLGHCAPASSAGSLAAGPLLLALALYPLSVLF

SUMO E1/E2 = SUMO E1/E2 (Homo sapiens, UniProt P63279+Q9UBE0+Q9UBT2); assay: SAR analysis of SUMOylation using HTRF in an in-Vitro dose response assay. [Related pubchem assays (depositor defined):AID2006, AID2011, AID2018, AID2069, AID2658]; type: functional

T3 sequence (P09923 whole entry): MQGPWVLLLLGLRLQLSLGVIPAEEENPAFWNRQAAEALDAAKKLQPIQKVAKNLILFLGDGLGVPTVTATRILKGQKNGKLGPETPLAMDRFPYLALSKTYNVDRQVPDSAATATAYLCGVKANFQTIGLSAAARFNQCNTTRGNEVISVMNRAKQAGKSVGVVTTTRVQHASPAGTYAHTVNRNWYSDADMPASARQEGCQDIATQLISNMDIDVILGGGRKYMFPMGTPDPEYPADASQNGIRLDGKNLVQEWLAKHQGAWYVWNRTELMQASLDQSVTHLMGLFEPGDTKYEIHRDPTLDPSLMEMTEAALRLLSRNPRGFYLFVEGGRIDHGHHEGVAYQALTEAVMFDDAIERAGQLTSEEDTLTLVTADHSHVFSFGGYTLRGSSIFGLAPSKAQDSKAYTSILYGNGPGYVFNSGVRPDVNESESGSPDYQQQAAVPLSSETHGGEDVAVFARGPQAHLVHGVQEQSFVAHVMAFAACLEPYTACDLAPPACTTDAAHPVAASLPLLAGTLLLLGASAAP
Chain of ATP-dependent molecular chaperone HSP82 (C4YTQ8 whole entry): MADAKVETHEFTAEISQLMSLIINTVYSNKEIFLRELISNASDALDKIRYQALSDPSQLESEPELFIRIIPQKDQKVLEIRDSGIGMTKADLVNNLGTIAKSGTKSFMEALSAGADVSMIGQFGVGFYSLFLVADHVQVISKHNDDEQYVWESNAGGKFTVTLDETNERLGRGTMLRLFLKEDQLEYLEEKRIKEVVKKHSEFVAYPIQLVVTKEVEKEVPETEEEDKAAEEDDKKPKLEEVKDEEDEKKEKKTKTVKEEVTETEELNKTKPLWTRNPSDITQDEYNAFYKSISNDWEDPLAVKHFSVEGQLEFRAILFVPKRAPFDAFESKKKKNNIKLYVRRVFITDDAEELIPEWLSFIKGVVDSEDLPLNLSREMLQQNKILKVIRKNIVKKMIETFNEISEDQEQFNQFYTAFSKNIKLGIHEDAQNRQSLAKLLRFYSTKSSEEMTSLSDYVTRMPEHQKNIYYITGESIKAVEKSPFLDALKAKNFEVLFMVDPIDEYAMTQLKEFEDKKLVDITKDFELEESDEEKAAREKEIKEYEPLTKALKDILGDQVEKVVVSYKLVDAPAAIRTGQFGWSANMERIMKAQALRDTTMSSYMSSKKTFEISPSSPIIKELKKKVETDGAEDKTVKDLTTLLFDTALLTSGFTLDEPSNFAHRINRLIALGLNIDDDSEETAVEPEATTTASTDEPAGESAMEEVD
Chain of Lysine-specific demethylase 4C (Q9H3R0 whole entry): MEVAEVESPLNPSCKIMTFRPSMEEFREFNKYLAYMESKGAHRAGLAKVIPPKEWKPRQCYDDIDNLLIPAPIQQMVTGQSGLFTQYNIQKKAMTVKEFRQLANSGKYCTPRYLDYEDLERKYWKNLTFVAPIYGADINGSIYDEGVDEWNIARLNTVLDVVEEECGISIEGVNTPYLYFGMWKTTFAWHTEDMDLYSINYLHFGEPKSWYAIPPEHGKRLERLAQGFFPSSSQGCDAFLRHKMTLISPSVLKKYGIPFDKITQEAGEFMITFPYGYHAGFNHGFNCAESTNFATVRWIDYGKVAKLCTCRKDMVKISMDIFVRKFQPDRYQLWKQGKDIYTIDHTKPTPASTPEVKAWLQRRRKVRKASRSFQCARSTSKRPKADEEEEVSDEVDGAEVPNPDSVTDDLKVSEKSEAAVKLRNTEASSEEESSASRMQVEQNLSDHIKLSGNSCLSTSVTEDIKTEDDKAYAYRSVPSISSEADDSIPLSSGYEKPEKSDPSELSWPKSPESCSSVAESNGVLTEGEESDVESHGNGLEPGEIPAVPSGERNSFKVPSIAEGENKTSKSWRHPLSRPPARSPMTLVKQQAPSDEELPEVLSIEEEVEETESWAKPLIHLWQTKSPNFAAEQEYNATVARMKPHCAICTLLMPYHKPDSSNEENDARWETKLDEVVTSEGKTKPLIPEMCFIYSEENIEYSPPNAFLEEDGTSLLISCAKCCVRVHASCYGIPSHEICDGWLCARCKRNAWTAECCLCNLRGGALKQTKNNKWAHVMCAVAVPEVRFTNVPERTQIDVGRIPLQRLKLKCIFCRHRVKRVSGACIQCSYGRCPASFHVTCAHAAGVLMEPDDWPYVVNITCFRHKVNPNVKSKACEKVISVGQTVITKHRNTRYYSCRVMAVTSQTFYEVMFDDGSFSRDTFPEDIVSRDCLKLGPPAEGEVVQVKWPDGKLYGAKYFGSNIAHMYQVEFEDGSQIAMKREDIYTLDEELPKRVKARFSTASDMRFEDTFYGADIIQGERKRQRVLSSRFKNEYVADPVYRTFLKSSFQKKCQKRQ
Chain of Intestinal-type alkaline phosphatase (Mus musculus, UniProt P24822) (P24822 whole entry): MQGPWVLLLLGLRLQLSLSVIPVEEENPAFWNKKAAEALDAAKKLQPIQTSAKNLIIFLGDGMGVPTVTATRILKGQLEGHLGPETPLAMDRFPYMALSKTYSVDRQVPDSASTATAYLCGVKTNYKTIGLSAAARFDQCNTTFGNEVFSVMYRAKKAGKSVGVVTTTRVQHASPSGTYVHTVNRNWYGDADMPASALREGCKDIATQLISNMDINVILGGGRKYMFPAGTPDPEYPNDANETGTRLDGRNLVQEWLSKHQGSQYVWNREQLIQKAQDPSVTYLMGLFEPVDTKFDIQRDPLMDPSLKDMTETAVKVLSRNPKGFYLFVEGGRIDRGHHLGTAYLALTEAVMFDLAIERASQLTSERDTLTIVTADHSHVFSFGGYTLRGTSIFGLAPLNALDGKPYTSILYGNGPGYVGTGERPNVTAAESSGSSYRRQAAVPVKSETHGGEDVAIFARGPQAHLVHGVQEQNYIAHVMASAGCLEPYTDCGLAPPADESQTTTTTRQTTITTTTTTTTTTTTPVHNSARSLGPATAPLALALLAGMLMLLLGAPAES
Chain of Lysine-specific demethylase 4A (O75164 whole entry): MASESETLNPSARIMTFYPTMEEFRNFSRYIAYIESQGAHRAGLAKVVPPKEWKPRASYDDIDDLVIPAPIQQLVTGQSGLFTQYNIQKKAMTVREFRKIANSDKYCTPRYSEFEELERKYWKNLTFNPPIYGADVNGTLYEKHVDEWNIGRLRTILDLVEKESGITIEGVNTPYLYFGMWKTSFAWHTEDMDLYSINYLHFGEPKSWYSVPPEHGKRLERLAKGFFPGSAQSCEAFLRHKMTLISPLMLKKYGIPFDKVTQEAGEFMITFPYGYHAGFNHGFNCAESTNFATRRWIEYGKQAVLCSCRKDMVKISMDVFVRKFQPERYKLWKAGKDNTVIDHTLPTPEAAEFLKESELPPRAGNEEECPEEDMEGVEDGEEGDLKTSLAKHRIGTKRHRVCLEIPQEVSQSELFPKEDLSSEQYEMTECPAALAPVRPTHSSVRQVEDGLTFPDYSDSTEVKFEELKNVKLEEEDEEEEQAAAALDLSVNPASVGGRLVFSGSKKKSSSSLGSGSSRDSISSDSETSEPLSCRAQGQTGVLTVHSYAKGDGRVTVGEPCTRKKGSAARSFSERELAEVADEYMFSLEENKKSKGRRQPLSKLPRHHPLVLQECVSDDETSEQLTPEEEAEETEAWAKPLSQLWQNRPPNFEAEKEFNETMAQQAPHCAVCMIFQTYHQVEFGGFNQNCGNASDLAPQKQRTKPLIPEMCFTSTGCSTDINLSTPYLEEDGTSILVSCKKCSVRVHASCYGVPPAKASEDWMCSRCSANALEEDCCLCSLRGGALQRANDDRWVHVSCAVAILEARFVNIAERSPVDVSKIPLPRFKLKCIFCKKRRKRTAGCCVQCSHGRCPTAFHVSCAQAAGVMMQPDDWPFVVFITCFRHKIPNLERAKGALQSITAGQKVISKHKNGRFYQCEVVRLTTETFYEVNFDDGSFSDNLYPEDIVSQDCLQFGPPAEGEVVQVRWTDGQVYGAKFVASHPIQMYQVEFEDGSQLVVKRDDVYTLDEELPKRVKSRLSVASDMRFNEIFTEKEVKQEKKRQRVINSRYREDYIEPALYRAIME

CN1C(=O)C(Cc2ccsc2)C(=O)N(C)C1=O
AC50 [1]: 8.7 µM (active) | AC50 [2]: 3.65 µM (active) | IC50 [3]: 33.6 µM (active) | IC50 [4]: 29.2 µM (active)

CCCCCCC[n+]1ccc(-c2cc[n+](CCCCCCC)cc2)cc1
EC50 [5]: 64.9 µM (active) | IC50 [6]: 2.74 µM (active) | IC50 [7]: 3.65 µM (active) | EC50 [8]: 0.055 µM (active) | EC50 [9]: > 180 µM (inactive) | AC50 (INS1): 0.22 µM (active) | EC50 [10]: > 160 µM (inactive)

CCC(C)(C)C1CCc2n[nH]c(C(=O)N/N=C(\C)c3ccco3)c2C1 (stereo unspecified)
IC50 [11]: > 100 µM (inactive) | EC50 [12]: 8.06 µM (active) | EC50 [13]: 33 µM (active) | EC50 [14]: 34.9 µM (active)

Cc1ccc(O)c(N=Cc2cccs2)c1
IC50 (SUMO E1/E2): > 100 µM (inactive)
